In US11738031B2, “Compositions and methods for preventing or treating muscle conditions” (The Board of Trustees of the Leland Stanford Junior …, priority 2017, dated 2023):
Entries after “also recorded” stand apart in the source; their conditions may differ.

What was measured:
[1] = test system: Nurr1; test: Nurr1 expression in MuSCs (qRT-PCR, flow cytometry); type: cell-based, mouse; settings: 24 hr PGE2 treatment in culture
Description: We analyzed NURR1 levels by flow cytometry using myogenic progenitors after a 24 hr treatment of vehicle (DMSO) or PGE2 (10 ng/ml), or from MuSCs transfected with shSCR or shNurr1 (see Knockdown assays section). We collected cells by incubation with 0.5% trypsin in PBS for 2 min at 37° C. We fixed the cells using 1.6% paraformaldehyde in PBS and then permeabilized them in ice-cold methanol. We then blocked them in staining buffer (0.5% BSA in PBS) for 30 min at room temperature and stained them with a Mouse monoclonal anti-Nurr1 (Abcam, catalog #ab41917, 1:75) primary antibody or anti-mouse IgG control (Jackson ImmunoResearch Laboratories). […] We analyzed the cells on a FACS LSR II cytometer using FACSDiva software (BD Biosciences) in the Stanford Shared FACS Facility, purchased using an NIH S10 Shared Instrument Grant (S10RR027431-01).
We isolated RNA from MuSCs using the RNeasy Micro Kit (Qiagen). […] To quantify relative transcript levels, we used 2^ΔΔCt to compare treated and untreated samples and expressed the results relative to Gapdh. […] TaqMan Assays (Applied Biosystems) were used to quantify Pax7, Myogenin, Nurr1, Ptger3 and Ptger4 in samples according to the manufacturer instructions with the TaqMan Universal PCR Master Mix reagent kit (Applied Biosystems). […]

[2] = test system: prostaglandin receptors (Ptger1-4); test: Quantitative RT-PCR of prostaglandin receptors in MuSCs; type: cell-based, mouse; settings: 24 hr PGE2 treatment of MuSCs
Description: Quantitative RT-PCR: We isolated RNA from MuSCs using the RNeasy Micro Kit (Qiagen). […] We reverse-transcribed cDNA from total mRNA from each sample using the SensiFAST™ cDNA Synthesis Kit (Bioline). We subjected cDNA to RT-PCR using SYBR Green PCR Master Mix (Applied Biosystems) or TaqMan Assays (Applied Biosystems) in an ABI 7900HT Real-Time PCR System (Applied Biosystems). We cycled samples at 95° C. for 10 min and then 40 cycles at 95° C. for 15 s and 60° C. for 1 min. […] For SYBR Green qRT-PCR, we used the following primer sequences: Gapdh, forward 5′-[sequence]-3′ (SEQ ID NO: 1), reverse 5′-[sequence]-3′ (SEQ ID NO: 2); Hpgd, forward 5′-[sequence]-3′ (SEQ ID NO: 3), reverse 5′-[sequence]-3′ (SEQ ID NO: 4); Ptges, forward 5′-[sequence]-3′ (SEQ ID NO: 5), reverse 5′-[sequence]-3′ (SEQ ID NO: 6); Ptges2, forward 5′-[sequence]-3′ (SEQ ID NO: 7), reverse 5′-[sequence]-3′ (SEQ ID NO: 8); Ptger1, forward 5′ [sequence]-3′ (SEQ ID NO: 9), reverse, 5′ [sequence]-3′ (SEQ ID NO: 10), and Ptger2, forward 5′-[sequence]-3′ (SEQ ID NO: 11), reverse 5′-[sequence]-3′ (SEQ ID NO: 12). TaqMan Assays (Applied Biosystems) were used to quantify Pax7, Myogenin, Slco2a1 (PGT), Ptger3 and Ptger4 in samples according to the manufacturer instructions with the TaqMan Universal PCR Master Mix reagent kit (Applied Biosystems). Transcript levels were expressed relative to Gapdh levels. […]

[3] = test system: endogenous MuSCs in tibialis anterior (TA) muscles; test: BLI of endogenous MuSC expansion after intramuscular bupivacaine/dmPGE2 (Example 4); type: in vivo, mouse
Description: Double-transgenic Pax7^CreERT2;Rosa26-LSL-Luc mice were generated by crossing Pax7^CreERT2 mice and Rosa26-LSL-Luc mice obtained from Jackson Laboratory (Stock #005125). These genotypes were validated by appropriate PCR-based strategies. All mice from transgenic and wild-type strains were of young age (2-4 months). All experiments were conducted using age and gender-matched controls. As depicted in the experimental scheme shown in FIG. 23A, mice were treated with five consecutive daily intraperitoneal injections of tamoxifen to activate luciferase expression under the control of the Pax7 promoter. A week after the last tamoxifen injection, the tibialis anterior (TA) muscles were injected intramuscularly with 50 μL of a drug mixture containing 0.125%, 0.25%, or 0.5% bupivacaine (BPV) (Cayman Chemical Cat #16618) and 10 μg 16,16-dimethyl prostaglandin E2 (dmPGE2; Tocris, Catalog #4027) using a 30 gauge needle on a Hamilton syringe. The contralateral TA received 50 μL of a mixture containing 0.5% bupivacaine (BPV) and DMSO vehicle as baseline sham control. Bioluminescence was assayed at days 3, 7, 10 and 14 post-injury.
Bioluminescence imaging (BLI) was performed using a Xenogen-100 system, as previously described. Briefly, mice were anesthetized using isofluorane inhalation and administered 120 μL D-luciferin (0.1 mmol/kg, reconstituted in PBS; Caliper LifeSciences) by intraperitoneal injection. BLI was acquired with between 5-60 second exposure at F-stop=1.0 at 5 minutes after luciferin injection. Digital images were recorded and analyzed using Living Image software (Caliper LifeSciences). Images were analyzed with a consistent region-of-interest (ROI) placed over each hindlimb to calculate a bioluminescence signal. A bioluminescence signal was calculated in radiance (p s^−1 cm^−2 sr^−1) value of 10^4 to define a positive threshold signal over background. BLI imaging was performed bi-weekly for 2 weeks after coinjection of BPV with dmPGE2 or vehicle.
The data in FIGS. 23A-C and 24 are shown as the mean±s.e.m. with n=6 mice. […]

Structure (SMILES) | Nurr1 mRNA and protein expression [1] | transcript levels of prostaglandin receptors (Ptger1-4) after PGE2 treatment [2] | log fold change in BLI two weeks after injection ([3]; 50 μL into TA, BPV plus 10 μg dmPGE2 compared to BPV/vehicle, dmPGE2 only group) | muscle regeneration vs dmPGE2 dose ([3]; as stated in summary of Example 4)
CCCCC[C@H](O)/C=C/[C@H]1[C@H](O)CC(=O)[C@@H]1C/C=C\CCCC(=O)O [PGE2, prostaglandin E2] | increased Nurr1 mRNA and protein expression | only receptors upregulated after PGE2 treatment of MuSCs are Ptger1 and Ptger4; also recorded: the most highly expressed receptor in MuSCs is Ptger4 |  | 
CCCCC(C)(C)[C@H](O)/C=C/[C@H]1[C@H](O)CC(=O)[C@@H]1C/C=C\CCCC(=O)O [dmPGE2, 16,16-dimethyl prostaglandin E2] |  |  | No detectable change | more pronounced muscle regeneration
